Test results: the NIST ThermoML archive (doi:10.1016/j.jct.2019.01.014)
Values joined by “and” are separate entries in the source; they are usually repeats but may differ in a detail not shown here. Equal entries are not always repeated. ± gives the expanded uncertainty stated by the source.

Assays:
[1] = Crystal, Calculated from knudsen effusion weight loss
[2] = molar enthalpy of vaporization or sublimation; conditions: Crystal, Static calorimetry

O=C1CCCCCN1 [1-aza-2-cycloheptanone]
Conditions | molar enthalpy [kcal/mol] | vapor or sublimation pressure
[1], 293.7 K | – | 0.0001506 ± 6e-05 kPa and 0.0001518 ± 6e-05 kPa and 0.0001508 ± 6e-05 kPa
[1], 295.7 K | – | 0.0001889 ± 6e-05 kPa and 0.000183 ± 6e-05 kPa and 0.000182 ± 6e-05 kPa
[1], 296.6 K | – | 0.0002196 ± 6.1e-05 kPa and 0.0002191 ± 6.1e-05 kPa and 0.0002211 ± 6.1e-05 kPa
[1], 298.19 K | – | 0.0002627 ± 6.1e-05 kPa and 0.0002587 ± 6.1e-05 kPa and 0.0002716 ± 6.1e-05 kPa
[1], 299.67 K | – | 0.0003254 ± 6.1e-05 kPa and 0.0003117 ± 6.1e-05 kPa and 0.0003173 ± 6.1e-05 kPa
[1], 301.1 K | – | 0.0003753 ± 6.2e-05 kPa and 0.0003757 ± 6.2e-05 kPa and 0.0003791 ± 6.2e-05 kPa
[1], 302.69 K | – | 0.0004428 ± 6.2e-05 kPa and 0.0004363 ± 6.2e-05 kPa and 0.0004403 ± 6.2e-05 kPa
[1], 304.15 K | – | 0.0005432 ± 6.3e-05 kPa and 0.0005228 ± 6.3e-05 kPa and 0.0005341 ± 6.3e-05 kPa
[1], 305.59 K | – | 0.0006305 ± 6.4e-05 kPa and 0.0006272 ± 6.4e-05 kPa and 0.0006374 ± 6.4e-05 kPa
[1], 307.18 K | – | 0.0007318 ± 6.5e-05 kPa and 0.0007265 ± 6.5e-05 kPa and 0.0007404 ± 6.6e-05 kPa
[1], 308.66 K | – | 0.0008828 ± 6.8e-05 kPa and 0.0009064 ± 6.8e-05 kPa and 0.0008695 ± 6.8e-05 kPa
[1], 310.1 K | – | 0.001048 ± 9.6e-05 kPa and 0.001045 ± 9.6e-05 kPa and 0.001038 ± 9.5e-05 kPa
[2], 350.03 K | 20.9 ± 1.17 | –

S=C1CCCCCN1 [azepane-2-thione]
Conditions | molar enthalpy [kcal/mol] | vapor or sublimation pressure
[1], 318.18 K | – | 9.46e-05 ± 6e-05 kPa and 9.18e-05 ± 6e-05 kPa and 9.11e-05 ± 6e-05 kPa
[1], 320.16 K | – | 0.0001201 ± 6e-05 kPa and 0.0001211 ± 6e-05 kPa and 0.0001173 ± 6e-05 kPa
[1], 322.08 K | – | 0.0001485 ± 6e-05 kPa and 0.0001484 ± 6e-05 kPa and 0.0001469 ± 6e-05 kPa
[1], 324.2 K | – | 0.0001813 ± 6e-05 kPa and 0.0001821 ± 6e-05 kPa and 0.0001901 ± 6e-05 kPa
[1], 326.15 K | – | 0.0002346 ± 6.1e-05 kPa and 0.0002296 ± 6.1e-05 kPa and 0.0002407 ± 6.1e-05 kPa
[1], 328.08 K | – | 0.0002879 ± 6.1e-05 kPa and 0.0002891 ± 6.1e-05 kPa and 0.0002869 ± 6.1e-05 kPa
[1], 330.18 K | – | 0.0003569 ± 6.1e-05 kPa and 0.0003533 ± 6.1e-05 kPa and 0.0003704 ± 6.1e-05 kPa
[1], 332.12 K | – | 0.0004537 ± 6.2e-05 kPa and 0.0004424 ± 6.2e-05 kPa and 0.0004677 ± 6.2e-05 kPa
[1], 334.07 K | – | 0.0005566 ± 6.3e-05 kPa and 0.0005557 ± 6.3e-05 kPa and 0.0005502 ± 6.3e-05 kPa
[1], 336.18 K | – | 0.0006862 ± 6.5e-05 kPa and 0.0006759 ± 6.5e-05 kPa and 0.0007079 ± 6.5e-05 kPa
[1], 338.15 K | – | 0.000897 ± 6.8e-05 kPa and 0.0008658 ± 6.7e-05 kPa and 0.0008434 ± 6.7e-05 kPa
[1], 340.08 K | – | 0.001048 ± 9.6e-05 kPa and 0.001057 ± 9.7e-05 kPa and 0.001058 ± 9.7e-05 kPa
[2], 386.11 K | 23.5 ± 1.29 | –
